Bridge positions count the residues as written; N and C are the ends. Square brackets hold non-standard residues; d marks the D form. Peptide text beside a SMILES is read from it. * marks the point of attachment. hPhe(3-Cl-4-CF3) = N[C@@H](CCc1ccc(C(F)(F)F)c(Cl)c1)C(=O)O; NMePhe(4-CF3) = CN[C@@H](Cc1ccc(C(F)(F)F)cc1)C(=O)O; NMePhe(4-Cl) = CN[C@@H](Cc1ccc(Cl)cc1)C(=O)O; NMePhe(2-Cl) = CN[C@@H](Cc1ccccc1Cl)C(=O)O; NMeGly(cPent) = CN[C@H](C(=O)O)C1CCCC1; NMeCha = CN[C@@H](CC1CCCCC1)C(=O)O; NMehLeu = CN[C@@H](CCC(C)C)C(=O)O; NMeD = CN[C@@H](CC(=O)O)C(=O)O; NMeL = CN[C@@H](CC(C)C)C(=O)O; NMeV = CN[C@H](C(=O)O)C(C)C; d(β3hA) = C[C@@H](N)CC(=O)O; NMeS = CN[C@@H](CO)C(=O)O; Morpholide = C1CN(*)CCO1; NMeA = CN[C@@H](C)C(=O)O; Piperidide = C1CCN(*)CC1; Pyrrolidide = C1CCN(*)C1; dNMeA = CN[C@H](C)C(=O)O; Ac5c = NC1(C(=O)O)CCCC1; Aze = O=C(O)[C@@H]1CCN1; CH2CMe2OH = CC(C)(O)C*; Sar = CNCC(=O)O; Propyl = CCC*
molecular target: protein-protein interaction between Kras and SOS1 (biotin-tagged human Kras loaded with GDP, His-tagged human SOS1) (Homo sapiens (Human), UniProt P01116, G12D); experiment: Protein-protein interaction inhibition between Kras and SOS1 (KrasG12D-SOS PPI) using AlphaScreen; format: biochemical; conditions: AlphaScreen; biotin-tagged human Kras loaded with GDP, His-tagged human SOS1; read-out: KRAS G12D-SOS PPI IC50;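 further: kras produced in E. coli, Ni-coupled donor beads and streptavidin acceptor beads, excitation 680 nm with emission detected at 520–620 nm via singlet oxygen transfer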

Point of comparison: `CC[C@H](C)[C@@H]1NC(=O)[C@H](CCC(C)C)N(C)C(=O)C[C@@H](C(=O)N2CCOCC2)N(C)C(=O)[C@H](C2CCCC2)N(C)C(=O)C2(CCCC2)NC(=O)[C@@H]2CCCN2C(=O)[C@H](CCc2ccc(C(F)(F)F)c(Cl)c2)NC(=O)CN(C)C(=O)[C@H](C2CCCC2)N(C)C(=O)[C@@H]2CCN2C(=O)[C@H](C)NC1=O` [Compound 1223] ([NMehLeu]IA[Aze][NMeGly(cPent)][Sar][hPhe(3-Cl-4-CF3)]P[Ac5c][NMeGly(cPent)][NMeD]-Morpholide; lactam N-11), IC50 0.0012 µM. Against it:
- CC[C@H](C)[C@@H]1NC(=O)[C@H](CC(C)C)N(C)C(=O)C[C@@H](C)NC(=O)[C@H](C2CCCC2)N(C)C(=O)C2(CCCC2)NC(=O)[C@@H]2CCCN2C(=O)[C@H](CCc2ccc(C(F)(F)F)c(Cl)c2)NC(=O)CN(C)C(=O)[C@H](CC2CCCCC2)N(C)C(=O)[C@@H]2CCN2C(=O)CN(C)C1=O [Compound 1499] (cyclo([Ac5c][NMeGly(cPent)][d(β3hA)][NMeL]I[Sar][Aze][NMeCha][Sar][hPhe(3-Cl-4-CF3)]P)) — 16-fold higher, 0.019 µM
- CC[C@H](C)[C@@H]1NC(=O)[C@H](CC(C)C)N(C)C(=O)C[C@@H](C)NC(=O)[C@H](C2CCCC2)N(C)C(=O)C2(CCCC2)NC(=O)[C@@H]2CCCN2C(=O)[C@H](CCc2ccc(C(F)(F)F)c(Cl)c2)NC(=O)[C@@H](C)N(C)C(=O)[C@H](Cc2ccc(C(F)(F)F)cc2)N(C)C(=O)[C@@H]2CCN2C(=O)CN(C)C1=O [Compound 1468] (cyclo([Ac5c][NMeGly(cPent)][d(β3hA)][NMeL]I[Sar][Aze][NMePhe(4-CF3)][dNMeA][hPhe(3-Cl-4-CF3)]P)) — 75-fold higher, 0.09 µM
- CC[C@H](C)[C@@H]1NC(=O)[C@H](CC(C)C)N(C)C(=O)C[C@@H](C)NC(=O)[C@H](C(C)C)N(C)C(=O)C2(CCCC2)NC(=O)[C@@H]2CCCN2C(=O)[C@H](CCc2ccc(C(F)(F)F)c(Cl)c2)NC(=O)CN(C)C(=O)[C@H](CC2CCCCC2)N(C)C(=O)[C@@H]2CCN2C(=O)[C@H](CC(C)C)N(C)C1=O [Compound 1619] (cyclo([Ac5c][NMeV][d(β3hA)][NMeL]I[NMeL][Aze][NMeCha][Sar][hPhe(3-Cl-4-CF3)]P)) — 300-fold higher, 0.36 µM
- CC[C@H](C)[C@@H]1NC(=O)[C@H](CC(C)C)N(C)C(=O)C[C@@H](C)NC(=O)[C@H](C(C)C)N(C)C(=O)C2(CCCC2)NC(=O)[C@@H]2CCCN2C(=O)[C@H](CCc2ccc(C(F)(F)F)c(Cl)c2)NC(=O)CN(C)C(=O)[C@H](CC2CCCCC2)N(C)C(=O)[C@@H]2CCN2C(=O)[C@H](C)N(C)C1=O [Compound 488, (5S,8S,11S,15R,18S,23aS,29S,35S,37aS)-8-((S)-sec-butyl)-29-(3-chloro-4-(trifluoromethyl)phenethyl)-35-(cyclohexylmethyl)-11-isobutyl-18-isopropyl-5,6,12,15,19,33,36-heptamethyldocosahydro-2H,4H-spiro[azeto[2,1-u]pyrrolo[2,1-i][1,4,7,10,13,16,19,22,25,28,31]undecaazacyclotetratriacontine-21,1′-cyclopentan]-4,7,10,13,17,20,23,28,31,34,37(14H,22H)-undecaone] (cyclo([Ac5c][NMeV][d(β3hA)][NMeL]I[NMeA][Aze][NMeCha][Sar][hPhe(3-Cl-4-CF3)]P)) — 24-fold higher, 0.029 µM
- CCCOC[C@H]1C(=O)N(C)CC(=O)N[C@@H](CCc2ccc(C(F)(F)F)c(Cl)c2)C(=O)N2CCC[C@H]2C(=O)NC2(CCCC2)C(=O)N(C)[C@@H](C(C)C)C(=O)N(C)[C@H](C(=O)N2CCCCC2)CC(=O)N(C)[C@@H](CC(C)C)C(=O)N[C@@H]([C@@H](C)CC)C(=O)N(C)[C@@H](C)C(=O)N2CC[C@H]2C(=O)N1C [Compound 1646] ([NMeL]I[NMeA][Aze][NMeS](Propyl)[Sar][hPhe(3-Cl-4-CF3)]P[Ac5c][NMeV][NMeD]-Piperidide; lactam N-11) — 3.8-fold higher, 0.0046 µM
- CC[C@H](C)[C@@H]1NC(=O)[C@H](C)N(C)C(=O)C[C@@H](C(=O)N2CCCC2)N(C)C(=O)[C@H](C(C)C)N(C)C(=O)C2(CCCC2)NC(=O)[C@H](Cc2ccccc2Cl)N(C)C(=O)[C@H](CCc2ccc(C(F)(F)F)c(Cl)c2)NC(=O)CN(C)C(=O)[C@H](CC2CCCCC2)N(C)C(=O)CN(C)C(=O)CN(C)C1=O [Compound 2008] ([NMeA]I[Sar][Sar][NMeCha][Sar][hPhe(3-Cl-4-CF3)][NMePhe(2-Cl)][Ac5c][NMeV][NMeD]-Pyrrolidide; lactam N-11) — 120-fold higher, 0.14 µM
- CC[C@H](C)[C@@H]1NC(=O)[C@H](CC(C)C)N(C)C(=O)C[C@@H](C(=O)N2CCCCC2)N(C)C(=O)[C@H](C(C)C)N(C)C(=O)C2(CCCC2)NC(=O)[C@@H]2CCCN2C(=O)[C@H](CCc2ccc(C(F)(F)F)c(Cl)c2)NC(=O)CN(C)C(=O)[C@H](Cc2ccc(Cl)cc2)N(C)C(=O)[C@@H]2CCN2C(=O)[C@H](C)N(C)C1=O [Compound 680] ([NMeL]I[NMeA][Aze][NMePhe(4-Cl)][Sar][hPhe(3-Cl-4-CF3)]P[Ac5c][NMeV][NMeD]-Piperidide; lactam N-11) — 8.3-fold higher, 0.0099 µM
- CC[C@H](C)[C@@H]1NC(=O)[C@H](CC(C)C)N(C)C(=O)C[C@@H](C)NC(=O)[C@H](C(C)C)N(C)C(=O)C2(CCCC2)NC(=O)[C@@H]2CCCN2C(=O)[C@H](CCc2ccc(C(F)(F)F)c(Cl)c2)NC(=O)CN(C)C(=O)[C@H](CC2CCCCC2)N(C)C(=O)[C@@H]2CCN2C(=O)[C@H](COCC(C)(C)O)N(C)C1=O [Compound 1122] (cyclo([Ac5c][NMeV][d(β3hA)][NMeL]I[NMeS](CH2CMe2OH)[Aze][NMeCha][Sar][hPhe(3-Cl-4-CF3)]P)) — 56-fold higher, 0.067 µM

— patent US20240148821A1, “PHARMACEUTICAL USE OF CYCLIC PEPTIDE COMPOUND” (CHUGAI SEIYAKU KABUSHIKI KAISHA, priority 2021, published 2024)
